Measurements from ChEMBL document CHEMBL3045761, “One pot synthesis of some novel coumarins containing 5-(substituted-2-hydroxybenzoyl) pyridine as a new class of antimicrobial and antituberculosis agents” (2013).
Values after ≈ are worked out from the molar mass of the structure shown.

Tests used:
Format in all cases: functional
[1] = system: Escherichia coli; experiment: Antibacterial activity against Escherichia coli MTCC 443 after overnight incubation by broth microdilution method
[2] = system: Aspergillus niger; experiment: Antifungal activity against Aspergillus niger MTCC 282 after overnight incubation by broth microdilution method
[3] = system: Candida albicans; experiment: Antifungal activity against Candida albicans MTCC 227 after overnight incubation by broth microdilution method
[4] = system: Staphylococcus aureus; experiment: Antibacterial activity against Staphylococcus aureus MTCC 96 after overnight incubation by broth microdilution method
[5] = system: Bacillus subtilis; experiment: Antibacterial activity against Bacillus subtilis MTCC 441 after overnight incubation by broth microdilution method
[6] = system: Mycobacterium tuberculosis; experiment: Antitubercular activity against Mycobacterium tuberculosis H37Rv after 21 days by Lowenstein-Jensen method; details: 504 h
[7] = system: Salmonella typhi; experiment: Antibacterial activity against Salmonella enterica subsp. enterica serovar Typhi MTCC 98 after overnight incubation by broth microdilution method

Compound | MIC99 [1] [µg/mL] | MIC99 [2] [µg/mL] | MIC99 [3] [µg/mL] | MIC99 [4] [µg/mL] | MIC99 [5] [µg/mL] | MIC90 [6] [µg/mL] | MIC99 [7] [µg/mL]
COc1cccc2cc(-c3ccc(C(=O)c4ccccc4O)cn3)c(=O)oc12 | 200 (≈ 536 µM) | > 1000 | 1000 (≈ 2680 µM) | 500 (≈ 1340 µM) | 200 (≈ 536 µM) | 500 (≈ 1340 µM) | 250 (≈ 670 µM)
O=C(c1ccc(-c2cc3cc(Br)ccc3oc2=O)nc1)c1ccccc1O | 50 (≈ 118 µM) | > 1000 | 200 (≈ 474 µM) | 200 (≈ 474 µM) | 100 (≈ 237 µM) | 250 (≈ 592 µM) | 125 (≈ 296 µM)
Cc1ccc(O)c(C(=O)c2ccc(-c3cc4c(ccc5ccccc54)oc3=O)nc2)c1 | 200 (≈ 491 µM) | 1000 (≈ 2450 µM) | 500 (≈ 1230 µM) | 125 (≈ 307 µM) | 100 (≈ 245 µM) | 1000 (≈ 2450 µM) | 250 (≈ 614 µM)
NYSTATIN |  | 100 | 100 |  |  |  | 
COc1cccc2cc(-c3ccc(C(=O)c4cc(C)ccc4O)cn3)c(=O)oc12 | 100 (≈ 258 µM) | 500 (≈ 1290 µM) | 1000 (≈ 2580 µM) | 250 (≈ 645 µM) | 250 (≈ 645 µM) | 62.5 (≈ 161 µM) | 100 (≈ 258 µM)
Cc1ccc(O)c(C(=O)c2ccc(-c3cc4ccccc4oc3=O)nc2)c1 | 250 (≈ 700 µM) | 1000 (≈ 2800 µM) | 250 (≈ 700 µM) | 100 (≈ 280 µM) | 200 (≈ 560 µM) | 100 (≈ 280 µM) | 200 (≈ 560 µM)
COc1cccc2cc(-c3ccc(C(=O)c4cc(Cl)ccc4O)cn3)c(=O)oc12 | 125 (≈ 307 µM) | > 1000 | > 1000 | 200 (≈ 490 µM) | 200 (≈ 490 µM) | 500 (≈ 1230 µM) | 200 (≈ 490 µM)
O=C(c1ccc(-c2cc3c(ccc4ccccc43)oc2=O)nc1)c1ccccc1O | 200 (≈ 508 µM) | 500 (≈ 1270 µM) | 250 (≈ 635 µM) | 100 (≈ 254 µM) | 100 (≈ 254 µM) | 250 (≈ 635 µM) | 250 (≈ 635 µM)
O=C(c1ccc(-c2cc3ccccc3oc2=O)nc1)c1cc(Cl)ccc1O | 250 (≈ 662 µM) | > 1000 | 500 (≈ 1320 µM) | 250 (≈ 662 µM) | 200 (≈ 529 µM) | 250 (≈ 662 µM) | 250 (≈ 662 µM)
O=C(c1ccc(-c2cc3c(ccc4ccccc43)oc2=O)nc1)c1cc(Cl)ccc1O | 250 (≈ 584 µM) | 100 (≈ 234 µM) | 1000 (≈ 2340 µM) | 100 (≈ 234 µM) | 125 (≈ 292 µM) | 500 (≈ 1170 µM) | 250 (≈ 584 µM)
Cc1ccc(O)c(C(=O)c2ccc(-c3cc4cc(Br)ccc4oc3=O)nc2)c1 | 100 (≈ 229 µM) | 500 (≈ 1150 µM) | 500 (≈ 1150 µM) | 500 (≈ 1150 µM) | 500 (≈ 1150 µM) | 100 (≈ 229 µM) | 100 (≈ 229 µM)
COC1=CC(=O)C[C@@H](C)[C@]12Oc1c(Cl)c(OC)cc(OC)c1C2=O [GRISEOFULVIN] |  | 100 (≈ 283 µM) | 500 (≈ 1420 µM) |  |  |  | 
CC1(C)S[C@@H]2[C@H](NC(=O)[C@H](N)c3ccccc3)C(=O)N2[C@H]1C(=O)O [AMPICILLIN] | 100 (≈ 286 µM) |  |  | 250 (≈ 715 µM) | 250 (≈ 715 µM) |  | 100 (≈ 286 µM)
O=C(c1ccc(-c2cc3ccccc3oc2=O)nc1)c1ccccc1O | 100 (≈ 291 µM) | 1000 (≈ 2910 µM) | 500 (≈ 1460 µM) | 200 (≈ 583 µM) | 250 (≈ 728 µM) | 1000 (≈ 2910 µM) | 125 (≈ 364 µM)
O=C(c1ccc(-c2cc3cc(Br)ccc3oc2=O)nc1)c1cc(Cl)ccc1O | 62.5 (≈ 137 µM) | > 1000 | 100 (≈ 219 µM) | 62.5 (≈ 137 µM) | 100 (≈ 219 µM) | 1000 (≈ 2190 µM) | 100 (≈ 219 µM)
